Drawing on PubChem BioAssay (NCI), this text covers TGI for two molecules.

Experiment in all cases: NCI-60 cell line screen, 48 h
Test [1] has as its system UACC-257 melanoma.
Test [2] deals with HCT-116 colon.
The subject of test [3] is OVCAR-5 ovarian.
The subject of test [4] is MDA-N.
For test [5], the system named is EKVX NSCLC.
Test [6] relates to SW-620 colon.
Test [7] deals with NCI-H226 lung.
The subject of test [8] is CAKI-1 renal.
Test [9] relates to SF-268 CNS.
Test [10] relates to SK-OV-3 ovarian.
Test [11] concerns SK-MEL-5 melanoma.
Test [12] concerns HT29 colon.
Test [13] relates to SNB-75 CNS.
The test system of test [14] is COLO 205 colon.
The test system of test [15] is SK-MEL-28 melanoma.
Test [16] deals with DU-145 prostate.
Test [17] concerns SNB-19 CNS.
Test [18] concerns M14 melanoma.
The test system of test [19] is HOP-62 NSCLC.
Test [20] relates to UO-31 renal.

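Dose response: 5 concentrations. Exposure: 48 h. Format: 96-well plates. Endpoint: linear interpolation; highest concentration if not reached. TGI marks complete inhibition of growth.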

For the molecule `COc1ccc2nc3ccccc3c(NCCCCCCN(CCCl)CCCl)c2c1`, the TGI is more than 22.9 µM in test [1]; 1.39 µM in test [2]; 1.9 µM in [3]; 0.656 µM in test [4]; 4.22 µM in [5]; 472 nM in test [6]. Further, the TGI in [7] was found to be 1530 nM; in test [8] it was 197 nM; in [9], 1180 nM; in test [10], 2.74 µM; in [11], 1640 nM; in [12] it was 1280 nM. The TGI in [13] is 92.4 nM; in [14], 107 nM; in test [15], 76.1 µM; in [16] it was 1470 nM; in test [17], 3.45 µM; in test [18], 514 nM. Also, the TGI in [19] amounted to 2420 nM; in test [20] it was 513 nM.

Take `N=C(N)c1ccc(N=Nc2c(O)ccc3c2[nH]c2ccccc23)cc1`: the TGI is more than 89.1 µM in test [1]; 37.5 µM in test [2]; 83.1 µM in test [3]; 50.6 µM in [4]; more than 100 µM in test [5]; 4850 nM in test [6]. For the same molecule, the TGI in test [7] is more than 90600 nM; in test [8], more than 100000 nM; in test [9], more than 100000 nM; in test [10], 79.9 µM; in test [11], more than 100000 nM; in test [12], more than 100000 nM. Also, the TGI was more than 100000 nM in test [13]; more than 100000 nM in [14]; more than 70.9 µM in test [15]; more than 100000 nM in test [16]; more than 100 µM in test [17]; more than 100000 nM in test [18]. Further, the TGI in test [19] was more than 100000 nM; in [20] it was more than 90900 nM.
